Data: patent EP3991725B1, “NOVEL ENTERO-ANTISEPTIC FOR THE TREATMENT OF GASTROINTENSTINAL INFECTIONS IN HUMANS” (Ninkov, Dusan, priority 2020, dated 2022)

Tests used:
[1] = tested on: Staphylococcus aureus; assay: Comparative in vitro examination of selected pathogens, zone diameter; type: cell-based; conditions: (Müller)Hinton-Agar; amount used: The novel compound 0.05 mL; Cephalosporin 0.1 mL; Ampicillin 0.2 mL
[2] = tested on: Escherichia coli 0157H5; assay: as above; type: cell-based; conditions: (Müller)Hinton-Agar; amount used: The novel compound 0.05 mL; Cephalosporin 0.1 mL; Ampicillin 0.2 mL
[3] = tested on: Salmonella typhimurium DT104; assay: as above; type: cell-based; conditions: (Müller)Hinton-Agar; amount used: The novel compound 0.05 mL; Cephalosporin 0.1 mL; Ampicillin 0.2 mL
[4] = tested on: Streptococcus pneumonia; assay: as above; type: cell-based; conditions: (Müller)Hinton-Agar; amount used: The novel compound 0.05 mL; Cephalosporin 0.1 mL; Ampicillin 0.2 mL
[5] = tested on: Streptococcus pyogenes; assay: as above; type: cell-based; conditions: (Müller)Hinton-Agar; amount used: The novel compound 0.05 mL; Cephalosporin 0.1 mL; Ampicillin 0.2 mL
[6] = tested on: Streptococcus uberis; assay: as above; type: cell-based; conditions: (Müller)Hinton-Agar; amount used: The novel compound 0.05 mL; Cephalosporin 0.1 mL; Ampicillin 0.2 mL
[7] = tested on: Listeria monocytogenes; assay: as above; type: cell-based; conditions: (Müller)Hinton-Agar; amount used: The novel compound 0.05 mL; Cephalosporin 0.1 mL; Ampicillin 0.2 mL
[8] = tested on: E. coli; assay: as above; type: cell-based; conditions: (Müller)Hinton-Agar; amount used: The novel compound 0.05 mL; Cephalosporin 0.1 mL; Ampicillin 0.2 mL
[9] = tested on: Salmonella; assay: as above; type: cell-based; conditions: (Müller)Hinton-Agar; amount used: The novel compound 0.05 mL; Cephalosporin 0.1 mL; Ampicillin 0.2 mL
[10] = tested on: Campylobacter; assay: as above; type: cell-based; conditions: (Müller)Hinton-Agar; amount used: The novel compound 0.05 mL; Cephalosporin 0.1 mL; Ampicillin 0.2 mL
[11] = tested on: Shigella; assay: as above; type: cell-based; conditions: (Müller)Hinton-Agar; amount used: The novel compound 0.05 mL; Cephalosporin 0.1 mL; Ampicillin 0.2 mL
[12] = tested on: Vibrio; assay: as above; type: cell-based; conditions: (Müller)Hinton-Agar; amount used: The novel compound 0.05 mL; Cephalosporin 0.1 mL; Ampicillin 0.2 mL
[13] = tested on: Yersinia; type: cell-based; conditions: (Müller)Hinton-Agar; amount used: The novel compound 0.05 mL; Cephalosporin 0.1 mL; Ampicillin 0.2 mL
[14] = tested on: Listeria; assay: Comparative in vitro examination of selected pathogens, zone diameter; type: cell-based; conditions: (Müller)Hinton-Agar; amount used: The novel compound 0.05 mL; Cephalosporin 0.1 mL; Ampicillin 0.2 mL
[15] = tested on: humans; assay: Clinical pilot study for side effects of the compound tablets; type: in vivo; conditions: 60 humans; 250 mg / 30 kg of the body weight every 12 hours for seven (7) days
Description: The reason for this testing was to check if the compound tablets, after a longer period of use, can cause any eventual side effects.
The test results were generated and monitored to obtain the relevant information and facts. In this study, the general monitored parameters were pulse, breathing, ECG (Electrocardiography), any discomfort, adverse events and/or allergy monitoring. These parameters were measured before the treatment with the compound and 15 minutes after its intake. The compound was ingested on the therapeutic days in each patient at 8.00 AM and 8.00 PM CET (paragraph [0026] and paragraph [0027]). After The compound had been consumed, the physician made observations for 30 min. Feeling of the patients during and after the intake of the compound will also be recorded for each participant.
As part of the biochemical analysis of patients' blood, the blood sample of each patient was checked for biochemical parameters. Blood samples were taken from each patient before the beginning of the test, on the 4th day from the tests beginning, and on the 8th day form the tests beginning. The last blood samples have to be checked 12 hours from the last intake of the compound. The biochemical parameters that were measured in blood samples include: • 1. Liver status • 2. C Reactive protein • 3. Kidney Status
The dose was: 250 mg of the compound / 30 kg of the body weight every 12 hours for seven (7) days (paragraph [0026] and paragraph [0027]).
The clinical study started on November 5th, 2019, and was completed on November 29th, 2019.

[16] = tested on: Salmonella strain which requires histidine; assay: Ames test (mutagenic and carcinogenic effect); type: cell-based
From the text: (The subject of the testing was to determine the mutagenic and carcinogenic effect of the compound in tablet form). The test has been done by the Ames test. This test which is a widely and often used method that use pathogens in most cases bacteria's in order to test whether a given chemical, compound and/or medicine can cause any damage to the DNA of the test organism. This method is fast to conduct and easy to follow to check mutagenic or carcinogenic effect of the tested compound. In the lab dish with a the specially selected Salmonella strain which requires histidine, was added to a rat liver extract. The test has been done using the control-experimental method. In the dish volume of the 20 mL of liquid considered to be a control one, had no the compound in it. Into the dish we consider to be experimental one with also a volume of 20 mL, we added 2 mL of the compound, partly diluted into a glucose injectable solution. The mutagenic test results were negative in both lab dishes - control and experimental plates. The results were identical with no signs of the mutations.

[17] = tested on: mammalian cells, mitotic division; assay: Pilot test of effect on mitotic cell division; type: cell-based; conditions: the compound in tablet form
From the text: In the pilot test at the same Institute, the effect of the compound on the mammalian cells, mitotic division has also been tested. It has been investigated if the compound in tablet form will have any negative - suppressive effect on the mitotic cells division. […] It is a positive sign that the compound in tablet form might be used for on pregnant mammals, without danger of the teratogenic effect on the fetus in the wombs, by the pregnant mammals.

[18] = tested on: bacteria; assay: In vitro studies of bactericide effect; type: cell-based; conditions: compared with Thymol and Carvacrol
From the text: Their physiological activity is well known. […] The phenol groups of both Thymol and Carvacrol are very aggressive to pathogens: bacteria, fungi etc. These groups are needed for bioactivity of our product. What has been done was making the phenol group less reactive by reacting them with carboxylic and amino group of glycine. The product should be administered p.o. (per os). The novelty idea was to hydrolyze a part of the new molecule in the stomach by hydrochloric acid. Carvacrol and an ester of Glycine and Thymol will be slowly hydrolyzed into Thymol and Glycine. […] The subject of this invention is to produce a potent entero-antiseptic for the treatment gastrointestinal infections in humans.

[19] = tested on: mice; assay: Acute toxicity LD50, oral (p.o.), mice; conditions: oral dose 2,000 mg/kg
[20] = tested on: rats; assay: Acute toxicity LD50, oral (p.o.), rats; conditions: oral dose 2,500 mg/kg
[21] = tested on: mice; assay: Acute toxicity LD50, parenteral - intraperitoneal (i.p.), mice; conditions: mouse, in vivo
[22] = tested on: rats; assay: Acute toxicity LD50, parenteral - intraperitoneal (i.p.), rats; conditions: i.p. dose 2,500 mg/kg
[23] = tested on: rats; conditions: oral (p.o.), Carvacrol 99,5% concentration, reference value; cited from earlier work
[24] = phenol group of Carvacrol; cited from earlier work

With “2-(2-isopropyl-5-methylphenoxy)-2-oxoethan-1-aminium 2-isopropyl-5-methylphenolate [The novel compound]” the “R (evaluation of the results by zone diameter)” value [1] was “E S”, the zone diameter [1] was 32 mm and the “R (evaluation of the results by zone diameter)” value [2] was “E S”. The zone diameter [2] was 29 mm, the “R (evaluation of the results by zone diameter)” value [3] was “E S” and the zone diameter [3] was 30 mm. For the same compound, the “R (evaluation of the results by zone diameter)” value [4] was “E S”, the zone diameter [4] was 36 mm and the “R (evaluation of the results by zone diameter)” value [5] was “E S”. For the same compound, the zone diameter [5] was 34 mm, the “R (evaluation of the results by zone diameter)” value [6] was “E S” and the zone diameter [6] was 37 mm. The “R (evaluation of the results by zone diameter)” value [7] was “E S”, the zone diameter [7] was 38 mm and the “R (evaluation of the results by zone diameter)” value [8] was “E S”. For the same compound, the zone diameter [8] was 32 mm, the “R (evaluation of the results by zone diameter)” value [9] was “E S” and the zone diameter [9] was 34 mm. The “R (evaluation of the results by zone diameter)” value [10] was “E S”, the zone diameter [10] was 35 mm and the “R (evaluation of the results by zone diameter)” value [11] was “E S”. For the same compound, the zone diameter [11] was 31 mm, the “R (evaluation of the results by zone diameter)” value [12] was “E S” and the zone diameter [12] was 33 mm. For the same compound, the “R (evaluation of the results by zone diameter)” value [13] was “E S”, the zone diameter [13] was 30 mm and the “R (evaluation of the results by zone diameter)” value [14] was “E S”. For the same compound, the zone diameter [14] was 32 mm, the “C Reactive Protein (CRP) measurements” value [15] was “no inflammation was developed” and the Electrocardiography measurements [15] was “regular without any pathological and irregular oscillations”. The “kidney functions (urine and blood parameters)” value [15] was “No irregular parameters were reported”, the “liver function biochemical analysis from blood samples” value [15] was “No irregular parameters were reported” and the “pulse frequency and blood pressure” value [15] was “not significantly altered”. For the same compound, the respiratory function [15] was “not disturbed”, the symptoms of allergy [15] was “no symptoms of allergy” and the “tolerance to the compound upon the prescribed dosage” value [15] was “showed tolerance”. The mutagenic test results ([16]; Ames test, rat liver extract, 2 mL of the compound, partly diluted into a glucose injectable solution, in 20 mL dish, preliminary result) was “negative”, the carcinogenic effect ([16]; suggested from the negative Ames test result, the compound in tablet form) was “no carcinogenic effect” and the “negative - suppressive effect on the mitotic cells division” value [17] was “no negative effects”. For the same compound, the bactericide effect [18] was “more effective and faster bactericide effect than existing Thymol and Carvacrol”, the “mice out of a hundred (100) that changed their behavior and demonstrated light discomfort” value [19] was 21 and the “rats out of a hundred (100) that changed their behavior and demonstrated light discomfort” value [20] was 37. The “mice out of a hundred (100) that changed their behavior and demonstrated discomfort” value [21] was 27, the “time after which discomfort symptoms disappeared” value [21] was 3 to 5 min and the “rats out of a hundred (100) that changed their behavior and demonstrated discomfort” value [22] was 35.
For Cc1ccc(C(C)C)cc1O [Carvacrol], the LD50 [23] is listed as 810 mg/kg and the pKa [24] is listed as 10.4.
In the case of CC1(C)S[C@@H]2[C@H](NC(=O)[C@H](N)c3ccccc3)C(=O)N2[C@H]1C(=O)O [Ampicillin], the “R (evaluation of the results by zone diameter)” value [1] is reported as “R (0mm - 4mm: resistant: R)”, the zone diameter [1] is reported as 0 mm and the “R (evaluation of the results by zone diameter)” value [2] is reported as “M S”. The zone diameter [2] was 7 mm, the “R (evaluation of the results by zone diameter)” value [3] was “M S” and the zone diameter [3] was 6 mm. For the same compound, the “R (evaluation of the results by zone diameter)” value [4] was “R (0mm - 4mm: resistant: R)”, the zone diameter [4] was 0 mm and the “R (evaluation of the results by zone diameter)” value [5] was “R (0mm - 4mm: resistant: R)”. The zone diameter [5] was 3 mm, the “R (evaluation of the results by zone diameter)” value [6] was “R (0mm - 4mm: resistant: R)” and the zone diameter [6] was 0 mm. The “R (evaluation of the results by zone diameter)” value [7] was “M S”, the zone diameter [7] was 5 mm and the “R (evaluation of the results by zone diameter)” value [8] was “R (0mm - 4mm: resistant: R)”. For the same compound, the zone diameter [8] was 2 mm, the “R (evaluation of the results by zone diameter)” value [9] was “M S” and the zone diameter [9] was 8 mm. The “R (evaluation of the results by zone diameter)” value [10] was “R (0mm - 4mm: resistant: R)”, the zone diameter [10] was 0 mm and the “R (evaluation of the results by zone diameter)” value [11] was “M S”. For the same compound, the zone diameter [11] was 6 mm, the “R (evaluation of the results by zone diameter)” value [12] was “R (0mm - 4mm: resistant: R)” and the zone diameter [12] was 4 mm. The “R (evaluation of the results by zone diameter)” value [13] was “R (0mm - 4mm: resistant: R)”, the zone diameter [13] was 1 mm and the “R (evaluation of the results by zone diameter)” value [14] was “R (0mm - 4mm: resistant: R)”. The zone diameter [14] was 2 mm.
